# Data from ChEMBL document CHEMBL1136459, “New antibacterial tetrahydro-4(2H)-thiopyran and thiomorpholine S-oxide and S,S-dioxide phenyloxazolidinones” (Bioorg Med Chem Lett, 2003).
# What was measured:
# Haemophilus influenzae [1] = experiment: In vitro antibacterial activity against Haemophilia influenzae strains 30063 and ATCC 31517 (HI); range is 16-32; format: functional
# Moraxella catarrhalis [2] = experiment: In vitro antibacterial activity against Moraxella catarrhalis strains 30607 and 30603 (MC).; format: functional
# Staphylococcus aureus [3] = experiment: In vitro antibacterial activity against Linezolid resistance Staphylococcus aureus ATCC 29213 (LRSA)
# Staphylococcus aureus [4] = experiment: In vitro antibacterial activity against Staphylococcus aureus strains UC12673, UC9213, ATCC 29213, and UC9271 (SA); range is 4-16; format: functional
# Streptococcus pneumoniae [5] = experiment: In vitro antibacterial activity against Streptococcus pneumoniae strains ATCC6305 and 31573 (SPN).
# Enterococcus faecium = experiment: In vitro antibacterial activity against vancomycin-resistant Enterococcus faecium UC12712 (VRE).
# [6] = system: Staphylococcus epidermidis; experiment: In vitro antibacterial activity against Staphylococcus epidermidis strains UC12084, 30031, and CDC-CNS90 (SE); format: functional
# Streptococcus pneumoniae [7] = experiment: In vitro antibacterial activity against Streptococcus pneumoniae strains ATCC 6305 and 31573 (SPN); range is 2-4
# Staphylococcus aureus [8] = experiment: In vitro antibacterial activity against linezolid-resistant Staphylococcus aureus ATCC 29213 (LRSA).; format: functional
# Staphylococcus aureus [9] = experiment: In vitro antibacterial activity against Staphylococcus aureus strains UC12673, UC9213, ATCC 29213, and UC9271 (SA); range is 16-32; format: functional
# Haemophilus influenzae [10] = experiment: In vitro antibacterial activity against Haemophilia influenzae strains ATCC 30063 and ATCC 31517; format: functional
# Moraxella catarrhalis [11] = experiment: In vitro antibacterial activity against Moraxella catarrhalis strains 30607 and 30603 (MC); range is 2-4; format: functional
# Staphylococcus aureus [12] = experiment: In vitro antibacterial activity against Staphylococcus aureus strains UC12673, UC9213, ATCC 29213, and UC9271 (SA); range is 2-4; format: functional
# Haemophilus influenzae [13] = experiment: In vitro antibacterial activity against Haemophilia influenzae strains 30063 and ATCC 31517 (HI); range is 4-8; format: functional
# [14] = system: Staphylococcus epidermidis; experiment: In vitro antibacterial activity against Staphylococcus epidermidis strains UC12084, 30031, and CDC-CNS90 (SE); range is 2-4; format: functional
# Moraxella catarrhalis [15] = experiment: In vitro antibacterial activity against Moraxella catarrhalis strains 30607 and 30603 (MC); range is 16-32; format: functional
# Haemophilus influenzae [16] = experiment: In vitro antibacterial activity against Haemophilia influenzae strains 30063 and ATCC 31517 (HI); range is 16-64; format: functional
# [17] = system: Staphylococcus epidermidis; experiment: In vitro antibacterial activity against Staphylococcus epidermidis strains UC12084, 30031, and CDC-CNS90 (SE); range is 1-24; format: functional
# Rattus norvegicus [18] = experiment: In vivo Cmax was determined after intravenous administration of compound (9.13+/-0.85 mg/kg) in male Sprague-Dawley rat; format: ADME, organism-based; parameters: route intravenous
# Rattus norvegicus [19] = experiment: In vivo Clearance (Cl) was determined after intravenous administration of compound (9.13+/-0.85 mg/kg) in male Sprague-Dawley rat; format: ADME, organism-based
# [20] = In vivo Oral bioavailability (F)was determined after peroral administration of compound (19.01+/-0.31 mg/kg) in male Sprague-Dawley rat; format: ADME, organism-based
# [21] = In vivo t1/2 was determined after peroral administration of compound (158.5+/-2 mg/kg) in male Sprague-Dawley rat; format: ADME, organism-based; conditions: po
# [22] = In vivo Volume distribution (Vss) was determined after intravenous administration of compound (9.13+/-0.85 mg/kg) in male Sprague-Dawley rat; format: ADME, organism-based; conditions: read-out: Vss
# Rattus norvegicus [23] = experiment: In vivo Area under curve (AUC) was determined after peroral administration of compound (76.4+/-2.6 mg/kg) in male Sprague-Dawley rat; format: ADME, organism-based; conditions: po
# Mus musculus = experiment: In vivo Efficacy of compound after peroral administration in mouse; format: functional; conditions: po
# Rattus norvegicus [24] = experiment: In vivo Cmax was determined after peroral administration of compound (76.4+/-2.6 mg/kg) in male Sprague-Dawley rat; format: ADME, organism-based; parameters: route oral; conditions: po
# [25] = In vivo Cmax was determined after peroral administration of compound (158.5+/-2 mg/kg) in male Sprague-Dawley rat; format: ADME, organism-based; parameters: route oral; conditions: po
# Rattus norvegicus [26] = experiment: In vivo t1/2 was determined after peroral administration of compound (76.4+/-2.6 mg/kg) in male Sprague-Dawley rat; format: ADME, organism-based; conditions: po
# Rattus norvegicus [27] = experiment: In vivo Area under curve (AUC) was determined after peroral administration of compound (19.01+/-0.31 mg/kg) in male Sprague-Dawley rat; format: ADME, organism-based; conditions: po
# Moraxella catarrhalis [28] = experiment: In vitro antibacterial activity against Moraxella catarrhalis strains 30607 and 30603 (MC); range is 4-8; format: functional
# [29] = In vivo Tmax was determined after peroral administration of compound (158.5+/-2 mg/kg) in male Sprague-Dawley rat; format: ADME, organism-based; conditions: po
# Rattus norvegicus [30] = experiment: In vivo Cmax was determined after peroral administration of compound (19.01+/-0.31 mg/kg) in male Sprague-Dawley rat; format: ADME, organism-based; parameters: route oral; conditions: po
# Rattus norvegicus [31] = experiment: In vivo Tmax was determined after peroral administration of compound (19.01+/-0.31 mg/kg) in male Sprague-Dawley rat; format: ADME, organism-based; conditions: po
# Rattus norvegicus [32] = experiment: In vivo t1/2 was determined after intravenous administration of compound (9.13+/-0.85 mg/kg) in male Sprague-Dawley rat; format: ADME, organism-based
# Rattus norvegicus [33] = experiment: In vivo Area under curve (AUC) was determined after intravenous administration of compound (9.13+/-0.85 mg/kg) in male Sprague-Dawley rat; format: ADME, organism-based
# Rattus norvegicus [34] = experiment: In vivo Tmax was determined after peroral administration of compound (76.4+/-2.6 mg/kg) in male Sprague-Dawley rat; format: ADME, organism-based; conditions: po
# Rattus norvegicus [35] = experiment: In vivo Area under curve (AUC) was determined after oral administration of compound (158.5+/-2 mg/kg) in male Sprague-Dawley rat
# Rattus norvegicus [36] = experiment: In vivo Volume distribution (Vss) was determined after peroral administration of compound (76.4+/-2.6 mg/kg) in male Sprague-Dawley rat; format: ADME, organism-based; conditions: po
# Rattus norvegicus [37] = experiment: In vivo Volume distribution (Vss) was determined after peroral administration of compound (158.5+/-2 mg/kg) in male Sprague-Dawley rat; format: ADME, organism-based; conditions: po
# Rattus norvegicus [38] = experiment: In vivo t1/2 was determined after peroral administration of compound (19.01+/-0.31 mg/kg) in male Sprague-Dawley rat; format: ADME, organism-based; conditions: po
# [39] = In vivo Oral bioavailability (F)was determined after peroral administration of compound (76.4+/-2.6 mg/kg) in male Sprague-Dawley rat; format: ADME, organism-based
# [40] = In vivo Oral bioavailability (F)was determined after peroral administration of compound (158.5+/-2 mg/kg) in male Sprague-Dawley rat; format: ADME, organism-based
# Rattus norvegicus [41] = experiment: In vivo Tmax was determined after intravenous administration of compound (9.13+/-0.85 mg/kg) in male Sprague-Dawley rat; format: ADME, organism-based
# [42] = system: Staphylococcus epidermidis; experiment: In vitro antibacterial activity against Staphylococcus epidermidis strains UC12084, 30031, and CDC-CNS90 (SE); range is 0.5-1; format: functional
# Staphylococcus aureus [43] = experiment: In vitro antibacterial activity against Staphylococcus aureus strains UC12673, UC9213, ATCC 29213, and UC9271 (SA); range is 1-2; format: functional
# Streptococcus pneumoniae [44] = experiment: In vitro antibacterial activity against Streptococcus pneumoniae strains ATCC 6305 and 31573 (SPN); range is 0.5-1
compound,measurement,setting,value
O=C(NC[C@H]1CN(c2ccc(N3CCS(=O)(=O)CC3)c(F)c2)C(=O)O1)C1CC1,MIC,Haemophilus influenzae [1],16 µg/mL
same,MIC,Moraxella catarrhalis [2],4 µg/mL
same,MIC,Staphylococcus aureus [3],2 µg/mL
same,MIC,Staphylococcus aureus [4],4 µg/mL
same,MIC,Streptococcus pneumoniae [5],2 µg/mL
same,MIC,Enterococcus faecium,4 µg/mL
O=C(CO)NC[C@H]1CN(c2ccc(C3CC[S+]([O-])CC3)c(F)c2)C(=O)O1 (stereo partly drawn),MIC,[6],4 µg/mL
same,MIC,Moraxella catarrhalis [2],8 µg/mL
same,MIC,Enterococcus faecium,8 µg/mL
same,MIC,Streptococcus pneumoniae [7],2 µg/mL
same,MIC,Staphylococcus aureus [8],64 µg/mL
same,MIC,Staphylococcus aureus [9],16 µg/mL
same,MIC,Haemophilus influenzae [10],8 µg/mL
CC(=O)NC[C@H]1CN(c2ccc(C3CCS(=O)(=O)CC3)c(F)c2)C(=O)O1,MIC,[6],0.5 µg/mL
same,MIC,Moraxella catarrhalis [11],2 µg/mL
same,MIC,Staphylococcus aureus [12],2 µg/mL
same,MIC,Streptococcus pneumoniae [5],0.5 µg/mL
same,MIC,Enterococcus faecium,2 µg/mL
same,MIC,Haemophilus influenzae [13],4 µg/mL
same,MIC,Staphylococcus aureus [8],32 µg/mL
O=C(/C=C/c1cccnc1)NC[C@H]1CN(c2ccc(C3CCS(=O)(=O)CC3)c(F)c2)C(=O)O1,MIC,[14],2 µg/mL
same,MIC,Staphylococcus aureus [4],4 µg/mL
same,MIC,Moraxella catarrhalis [15],16 µg/mL
same,MIC,Enterococcus faecium,8 µg/mL
same,MIC,Haemophilus influenzae [16],16 µg/mL
same,MIC,Staphylococcus aureus [8],32 µg/mL
O=C(NC[C@H]1CN(c2ccc(C3CC[S+]([O-])CC3)c(F)c2)C(=O)O1)C(F)F (stereo partly drawn),MIC,[17],1 µg/mL
same,Cmax,Rattus norvegicus [18],15600 ng/mL
same,Cl,Rattus norvegicus [19],37.25 mL/min/kg
same,bioavailability,[20],77.1%
same,half-life,[21],7.93 h
same,Vd,[22],1.78 L/kg
same,AUC,Rattus norvegicus [23],32400 ng·h/mL
same,ED50,Mus musculus,6.52 mg/kg
same,Cmax,Rattus norvegicus [24],8600 ng/mL
same,Cmax,[25],9070 ng/mL
same,T1/2,Rattus norvegicus [26],4.25 h
same,AUC,Rattus norvegicus [27],6570 ng·h/mL
same,MIC,Moraxella catarrhalis [28],4 µg/mL
same,Tmax,[29],0.38 h
same,Cmax,Rattus norvegicus [30],3470 ng/mL
same,T max,Rattus norvegicus [31],0.38 h
same,T1/2,Rattus norvegicus [32],2.9 h
same,MIC,Staphylococcus aureus [12],2 µg/mL
same,AUC,Rattus norvegicus [33],4090 ng·h/mL
same,T max,Rattus norvegicus [34],0.5 h
same,AUC,Rattus norvegicus [35],60800 ng·h/mL
same,MIC,Enterococcus faecium,2 µg/mL
same,Vss,Rattus norvegicus [36],29.84 L/kg
same,Vss,Rattus norvegicus [37],29.84 L/kg
same,T1/2,Rattus norvegicus [38],3.6 h
same,bioavailability,[39],95.1%
same,MIC,Haemophilus influenzae [13],4 µg/mL
same,bioavailability,[40],85.7%
same,T max,Rattus norvegicus [41],1.98 min
same,MIC,Staphylococcus aureus [8],16 µg/mL
CO/N=C/c1ccc(/C=C/C(=O)NC[C@H]2CN(c3ccc(N4CC[S+]([O-])CC4)c(F)c3)C(=O)O2)cc1,MIC,[42],0.5 µg/mL
same,MIC,Moraxella catarrhalis [2],4 µg/mL
same,MIC,Staphylococcus aureus [43],1 µg/mL
same,MIC,Enterococcus faecium,2 µg/mL
same,MIC,Streptococcus pneumoniae [44],0.5 µg/mL
same,MIC,Staphylococcus aureus [8],64 µg/mL
same,MIC,Haemophilus influenzae [10],> 64 µg/mL
